Source: article PMC13059744 (mBio, 2026)

System: cabABC promoter (PcabABC-luc) in S. mitis G22
Assay: cabABC expression, PcabABC-luc reporter in S. mitis G22
Type: cell-based, Streptococcus mitis
Conditions: after CSPG22 treatment in acidic medium; Fig. S3B

ESRLSRLLRDFIFQIKQ [CSPG22]
time of peak cabABC expression post-induction: approximately 70 min
